This is an account of results in patent US7709645B2, “Pyrrolo-pyridine kinase modulators” (SGX Pharmaceuticals, Inc., priority 2004, dated 2010).

The target of assay [1] is T1, Abl T315I kinase domain (unphosphorylated) (Mus musculus, UniProt P00520, T315I).
T1 construct: purified and unphosphorylated T315I Abl kinase domain; made in house; host or cells: E. coli BL21(DE3) strains
T1 sequence (P00520 242-493 T315I limits assumed): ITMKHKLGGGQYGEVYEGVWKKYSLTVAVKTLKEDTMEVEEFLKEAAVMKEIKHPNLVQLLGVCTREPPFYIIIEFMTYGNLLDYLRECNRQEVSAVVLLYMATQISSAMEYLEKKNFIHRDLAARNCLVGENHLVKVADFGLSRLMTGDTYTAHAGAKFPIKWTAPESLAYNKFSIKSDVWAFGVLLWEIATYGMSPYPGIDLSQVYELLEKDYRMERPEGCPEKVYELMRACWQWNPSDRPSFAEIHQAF
Nature of the assay: Abl_T315I Bioassay (c-Abl PK/LDH coupled enzyme assay). Format: biochemical. The conditions noted are these: 10 μM ATP. An excerpt:
Although the first of these examples uses the kinase domain of a mutant form of Abl T315I (“Abl T315I KD”), the kinase assays may use various forms of mutant and wild type enzymes, including, for example, the entire protein, the kinase domain, or a portion thereof (e.g. Abl Y393F). The kinases used in the assays may also be of varying phosphorylation states. In the c-Abl example, a mutant kinase at a zero phosphorylation state was used.
In the c-Abl Pyruvate Kinase (PK)/Lactate Dehydrogenase (LDH) Coupled Assay the protein kinase dependant phosphorylation of a substrate peptide was coupled to the oxidation of NADH. The oxidation of NADH to NAD+ was detected by monitoring a decrease in absorbance at 340 nm.
Materials: Abl substrate peptide=EAIYAAPFAKKK (SEQ ID NO:1)-OH (Biopeptide, San Diego, Calif.); βNADH (Sigma Cat#N-8129, FW=709.4); 2M MgCl2; 1M HEPES buffer, pH 7.5; Phosphoenolpyruvate (PEP) (Sigma Cat#P-7002, FW=234); Lactate dehydrogenase (LDH) (Worthington Biochemical Cat#2756); Pyruvate Kinase (PK) (Sigma Cat#P-9136); ATP (Sigma Cat#A-3377, FW=551); Greiner 384-well UV star plate; and purified and unphosphorylated T315I Abl kinase domain.
Stock Solutions: 10 mM NADH (7.09 mg/ml in miliQH2O) made fresh daily; 10 mM Abl substrate peptide (13.4 mg/ml in miliQH2O) stored at −20° C.; 100 mM HEPES buffer, pH 7.5 (5 ml 1M stock+45 ml miliQH2O); 100 mM MgCl2 (5 ml 2M MgCl2+95 ml dH2O); 100 mM PEP (23.4 mg/ml in dH2O) stored at −20° C.; 10 mM ATP (5.51 mg/ml in dH2O) stored at −20° C. (diluted 50 μl into total of 10 ml miliQH2O daily=50 μM ATP working stock); 1000 U/ml PK (U/mg varies with lot) flash-frozen under liquid N2 and stored at −80° C.; and 1000 U/ml LDH (U/mg varies with lot) flash-frozen under liquid N2 and stored at −80° C.
Standard Assay Setup for 384-well format (50 μl reaction): 300 μM NADH; 10 mM MgCl2; 2 mM PEP; 45 U/ml PK; 60 U/ml LDH; 200 μM Abl substrate peptide; 2.5 μl test compound (in DMSO); 2 μg/ml Abl kinase domain; 10 μM ATP; 100 mM HEPES buffer. Positive controls contained DMSO with no test compound. Negative controls contained 5 μl of 0.5M EDTA (50 mM in the assay). The dephosphorylated form of the c-Abl T315I mutant was used in the biochemical screening assays. The kinase reaction was initiated at time t=0 by the addition of ATP.
Activity was measured by following the time-dependent loss of NADH by absorbance spectroscopy at 340 nm. The linear portion of the resulting progress curve was then analyzed by linear regression to get the activity in absorbance units/time, reported as the slope of that best fit line (moles/unit time can be calculated from using molar extinction coefficient for NADH at 340 nm, 6250M^−1 cm^−1).
Data was evaluated using the equation: Z′=1−[3*(σ++σ−)/|μ+−μ−|](Zhang, et al., 1999 J Biomol Screening 4(2) 67-73), where μ denotes the mean and σ the standard deviation. The subscript designates positive or negative controls. The Z′ score for a robust screening assay should be ≧0.50. The typical threshold=μ+−3*σ+. Any value that falls below the threshold was designated a “hit”.
Dose response was analyzed using the equation: y=min+{(max−min)/(1+10^[compound]−logIC50)}, where y is the observed initial slope, max=the slope in the absence of inhibitor, min=the slope at infinite inhibitor, and the IC50 is the [compound] that corresponds to ½ the total observed amplitude (Amplitude=max−min).
To measure modulation, activation, or inhibition of Abl KD, a test compound was added to the assay at a range of concentrations. Inhibitors may inhibit Abl KD activity at an IC50 in the micromolar range, the nanomolar range, or, for example, in the subnanomolar range.
An open-reading frame for c-Abl was amplified from a Mus musculus (mouse) cDNA library prepared from freshly harvested mouse liver using a commercially available kit (Invitrogen) by PCR using the following primers: […]
The c-Abl T315I KD (kinase domain) was purified as follows. […]

The target in assay [2] is T2, T315I mutant form of BCR-ABL in Ba/F3 cells (Homo sapiens, UniProt P00519, T315I).
T2 construct: expressed in transfected cells; host or cells: Ba/F3 cells; the other entry of the earlier key: BCR (P11274, Breakpoint cluster region protein)
T2 sequence (P00519 242-493 T315I limits assumed): T1 sequence (P00520 242-493 T315I limits assumed) with S95N
Kind of assay: Abl_T315I p-ELISA Cellular Assay (BCR-ABL phospho-ELISA). It is filed as cell-based. To be noted: 60-120 minutes incubation. On the procedure: Cells (Ba/F3 cells transfected with WT BCR-ABL, other kinases, or T315I, Y253F, M351T, E255K, or other mutant forms of BCR-ABL) were grown in the absence of IL-3 at least ½ week before the assay. The day before assay, the cells were fed with fresh media so that at the time of assay the cells were in log phase. Ba/F3 cells that had been grown in the absence of IL-3 for at least ½ week were resuspended in RPMI 1640 so that each well of a 96-well plate would contain approximately 200,000 cells. Cells were distributed in a 96-well plate containing serially diluted concentrations of test compounds. Cells were typically incubated with or without test compounds for 60-120 minutes at 5% CO2, 37° C. The incubation was performed with or without other additives such as 10% FCS or 50% human plasma. After incubation of compounds, lysis buffer was added and incubated for 10-15 minutes; the lysate was cleared by centrifugation.
To make the ELISA plate, commercially available Anti-ABL antibodies (e.g. (Ab-3, Calbiochem OP20) were prepared at a concentration of 0.125 μg/ml in coating buffer (0.1M Na-carbonate, pH 9.5), and plated at 10 ml per plate (12.5 μl 100 μg/ml Ab/10 ml). In a high binding multi-well plate, 100 μl Ab in coating buffer were added to each well, and each plate was covered with a plate seal and incubated overnight at 4° C.
Excess antibody was removed and the ELISA plate was washed 3-4 times with 200 μl of wash buffer (0.05% Tween in PBS, pH 7.4). 150 μl of lysate (see above) were transferred to the ELISA plate. Plates were sealed and incubated 2 hours at room temperature. The detection antibody (e.g. HRP conjugated anti-pTyr or unconjugated α-p-Y 4G10, Upstate) was prepared in assay diluent. The antibody was diluted 1:1000 (stock=2 μg/μl, 200 μg in 100 μl; f.c.=2 μg/ml) in assay diluent and 10 ml of diluted antibody per plate were added. The lysate was removed from the ELISA plates, and wells were washed four times with 200 μl of wash buffer per well. 100 μl of detection antibody was added to each well; the plate was covered, and incubated 1 hr at room temperature (21° C.). Excess detection antibody was removed from the ELISA plates, and the wells were washed four times with 200 μl of wash buffer per well.
If necessary, (i.e. for unconjugated anti-pTyr antibody) secondary antibody (goat anti-rabbit HRP) was diluted 1:3000 in assay diluent (3.33 μl per 10 ml diluent) and added at 10 ml of diluted antibody per plate. Excess secondary antibody was removed from the ELISA plate, and the plate was washed four times with 200 μl per well of wash buffer.
Substrate Reagent A and Substrate Reagent B (Pierce Cat#37070 SuperSignal ELISA Pico Chemiluminescent Substrate) were added immediately before use (10 ml resultant solution per plate). 100 μl substrate were added per well, mixed for 1 minute, and chemiluminescent signal was measured with a luminometer.
(ELISA stands for enzyme-linked immunosorbent assay.)

Where a chain is given by its changes, count along the chain named.

For orientation: IC50 means the concentration at which inhibition is half-maximal.

Regarding `COc1ccccc1-c1c[nH]c2ncc(-c3csc(C(=O)N4CCN(C)CC4)c3)cc12` [AE4], the IC50 in assay [1] was less than 50 nM; in assay [2], 100 to 1000 nM.

Consider `COc1ccccc1-c1c[nH]c2ncc(-c3c[nH]cn3)cc12` [AE19], for which the IC50 in assay [1] is less than 50 nM; in assay [2], 100 to 1000 nM.

`O=C(c1cccc(-c2cnc3[nH]cc(-c4ccccc4F)c3c2)c1)N1CCOCC1` [AE29]: the values for the IC50 in assay [1] and in assay [2] were less than 50 nM and 100 to 1000 nM, respectively.

Take `COc1ccccc1-c1c[nH]c2ncc(-c3cccc(C(=O)N4CCC(CO)CC4)c3)cc12` [AE6]: the IC50 in assay [1] was less than 50 nM; in assay [2], less than 100 nM.

For the molecule `COc1ccccc1-c1c[nH]c2ncc(-c3ccc(O)c(C(=O)N(C)CCN(C)C)c3)cc12` [AE25], the results for the IC50 in assay [1] and in assay [2] were less than 50 nM and less than 100 nM, respectively.

In the case of `CCc1ccccc1-c1c[nH]c2ncc(-c3ccnc(F)c3)cc12` [AE18], the half-inhibitory concentration (IC50) was less than 50 nM in assay [1] and 100 to 1000 nM in assay [2].

In assay [1], `COc1ccccc1-c1c[nH]c2ncc(-c3cccc(C(=O)N(C)CCN(C)C)c3)cc12` [AE23] had an IC50 of less than 50 nM.

On to `CCOc1ccccc1-c1c[nH]c2ncc(-c3cncc(C(=O)NC)c3)cc12` [AE17], for which the IC50 in assay [1] is less than 50 nM.

Regarding `Oc1cccc(-c2cnc3[nH]cc(-c4ccoc4)c3c2)c1` [AE47], in assay [1], the 50% inhibitory concentration (IC50) was less than 50 nM.

The molecule `COc1ccccc1-c1c[nH]c2ncc(-c3cccc(C(=O)N4CCN(CCN5CCOCC5)CC4)c3)cc12` [AE24] displayed an IC50 in assay [1] of less than 50 nM.

With `CCOc1ccccc1-c1c[nH]c2ncc(-c3cncc(C(=O)N(C)C)c3)cc12` [AE16], the results for the IC50 in assay [1] and in assay [2] were less than 50 nM and 100 to 1000 nM, respectively.

With `Oc1cccc(-c2cnc3[nH]cc(Sc4ccccc4)c3c2)c1` [AE51], the IC50 in assay [1] was 50 to 200 nM.

With `COc1ccccc1-c1c[nH]c2ncc(-c3cncc(C(=O)N(C)CCN(C)C)c3)cc12` [AE5], the IC50 in assay [1] was less than 50 nM; in assay [2] it was less than 100 nM.

For `COc1ccccc1-c1c[nH]c2ncc(-c3ccc4c(c3)C(=O)NCC(=O)N4)cc12` [AE12], the IC50 in assay [1] is less than 50 nM.

As to `COc1ccccc1-c1c[nH]c2ncc(-c3cccc(C(=O)N4CCN(C(C)C)CC4)c3)cc12` [AE7], the IC50 in assay [1] is less than 50 nM; in assay [2] it was less than 100 nM.

In the case of `CCc1ccccc1-c1c[nH]c2ncc(-c3cncc(C(=O)N(C)C)c3)cc12` [AE15], the concentration for half-maximal inhibition (IC50) was less than 50 nM in assay [1] and 100 to 1000 nM in assay [2].

`COc1cccc(OC)c1-c1c[nH]c2ncc(-c3cccc(C(=O)N4CCOCC4)c3)cc12` [AE37]: the concentration for half-maximal inhibition (IC50) was less than 50 nM in assay [1] and less than 100 nM in assay [2].
